Measurements reported in patent publication US7655670B2 (Janssen Pharmaceutica N.V., priority 2005, dated 2010).
Like-named read-outs stand apart in the source and are kept apart here.

How the values were obtained:
[1] = biological target: human nociceptin receptor (ORL-1) (Homo sapiens, UniProt P41146); assay: nociceptin receptor (ORL-1) binding assay, 125I-Tyr14-nociceptin displacement
[2] = biological target: T1, ORL-1 receptor (Homo sapiens, UniProt P41146); assay: ORL-1 functional assay (calcium flux, FLIPR); format: cell-based; parameters: key to Inhibitor: a notation of “no” indicates that the compound did not act as an inhibitor; a notation of “yes” indicates that the compound acted as an inhibitor; a notation of “undetermined” indicates that the data did not clearly show whether or not the compound acted as an antagonist; details: for Inhibitor: HEK-293 cells over-expressing ORL-1 receptor and Gqi5 G protein, calcium flux; for % Inhibition (100 nM Nociceptin): inhibition of calcium signal from 100 nM nociceptin, HEK-293 cells with ORL-1 and Gqi5
T1 construct: expressed in transfected cells; host or cells: HEK-293 over-expressing ORL-1 and Gqi5
Experimental: To assay the function of a test compound, a HEK-293 cell line that over-expresses the ORL-1 receptor and the Gqi5 G protein (Molecular Devices) were employed. By using a calcium flux assay, agonism and antagonism through the ORL-1 receptor were detectable.
The HEK-293 cells were plated two days prior to assay. For assay, cells in 50 μl of medium were incubated with 50 μl of dye (Molecular Devices) for 1 hour at 37° C. 100 μl of test compound diluted in Hank's Buffered Salt Solution (HBSS) at 2-fold the indicated final concentration was added and time points taken every 1 second for 1 minute and every 3 seconds for an additional 1 minute using FLIPR384 (Molecular Devices). 50 μl of nociceptin (Neosystems, SA) at 5-fold the indicated final concentration was then added and additional time points were recorded every 1 second for 1 minute and every 3 seconds for an additional 1 minute.
The resulting data were processed using Microsoft Excel 6.0 and EC50 values were determined using GraphPad Prism 3.0. For agonists, the EC50 was determined from the initial calcium signal obtained after addition of the test compound. For compounds that behaved as antagonists, the percent inhibition or IC50 of the signal resulting from the subsequent addition of the nociceptin peptide was calculated.

[3] = biological target: Mu (μ) opioid receptor (Homo sapiens, UniProt P35372); assay: Filtration binding assay, mu opioid receptor (Damgo-H3 ligand)
[4] = biological target: Delta (δ) opioid receptor (Homo sapiens, UniProt P41143); assay: Filtration binding assay, delta opioid receptor (DPDPE-H3 ligand)
[5] = biological target: Kappa (κ) opioid receptor (Homo sapiens, UniProt P41145); assay: Filtration binding assay, kappa opioid receptor (U69593-H3 ligand)
[6] = 1 D4 cell line membrane, Damgo-H3 ligand, calculated mean where tested more than once, read-out: Mu (μ) IC50
[7] = 2D4 cell line membrane, DPDPE-H3 ligand, calculated mean where tested more than once, read-out: Delta (δ) IC50
[8] = 2C2 cell line membrane, U69593-H3 ligand, calculated mean where tested more than once, read-out: Kappa (κ) IC50

Chain of human nociceptin receptor (ORL-1) (P41146 whole entry): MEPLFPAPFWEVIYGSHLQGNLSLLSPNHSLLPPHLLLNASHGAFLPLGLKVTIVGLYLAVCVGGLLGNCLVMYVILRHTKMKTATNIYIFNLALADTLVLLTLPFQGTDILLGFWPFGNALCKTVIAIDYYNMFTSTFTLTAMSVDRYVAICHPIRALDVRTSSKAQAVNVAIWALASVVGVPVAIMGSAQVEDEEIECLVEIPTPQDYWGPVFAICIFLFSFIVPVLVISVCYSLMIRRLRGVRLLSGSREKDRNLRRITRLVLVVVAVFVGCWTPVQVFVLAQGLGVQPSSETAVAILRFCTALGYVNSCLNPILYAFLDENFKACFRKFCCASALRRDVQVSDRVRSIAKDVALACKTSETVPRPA
T1 sequence (P41146 whole entry): as above
Chain of Kappa (κ) opioid receptor (P41145 whole entry): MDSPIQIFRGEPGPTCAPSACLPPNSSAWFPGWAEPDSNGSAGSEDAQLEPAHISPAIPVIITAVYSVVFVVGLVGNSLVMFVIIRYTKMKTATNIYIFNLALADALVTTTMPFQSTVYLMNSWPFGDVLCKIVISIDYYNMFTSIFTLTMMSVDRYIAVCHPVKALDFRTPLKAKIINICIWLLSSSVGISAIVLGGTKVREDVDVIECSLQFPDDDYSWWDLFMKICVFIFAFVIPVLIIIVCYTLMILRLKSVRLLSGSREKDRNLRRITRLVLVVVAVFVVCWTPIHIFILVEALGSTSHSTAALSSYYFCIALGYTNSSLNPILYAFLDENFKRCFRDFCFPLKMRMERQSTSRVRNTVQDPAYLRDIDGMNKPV
Chain of Delta (δ) opioid receptor (P41143 whole entry): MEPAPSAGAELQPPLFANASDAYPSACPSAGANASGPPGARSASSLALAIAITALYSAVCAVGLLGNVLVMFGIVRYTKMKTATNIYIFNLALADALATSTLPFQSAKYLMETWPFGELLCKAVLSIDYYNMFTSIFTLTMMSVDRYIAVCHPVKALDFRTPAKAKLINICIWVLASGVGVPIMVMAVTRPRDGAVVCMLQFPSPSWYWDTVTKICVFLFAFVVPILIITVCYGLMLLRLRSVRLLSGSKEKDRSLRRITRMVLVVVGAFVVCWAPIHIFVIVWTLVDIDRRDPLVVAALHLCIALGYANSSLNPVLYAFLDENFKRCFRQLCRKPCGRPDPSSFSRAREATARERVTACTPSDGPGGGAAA
Chain of Mu (μ) opioid receptor (P35372 whole entry): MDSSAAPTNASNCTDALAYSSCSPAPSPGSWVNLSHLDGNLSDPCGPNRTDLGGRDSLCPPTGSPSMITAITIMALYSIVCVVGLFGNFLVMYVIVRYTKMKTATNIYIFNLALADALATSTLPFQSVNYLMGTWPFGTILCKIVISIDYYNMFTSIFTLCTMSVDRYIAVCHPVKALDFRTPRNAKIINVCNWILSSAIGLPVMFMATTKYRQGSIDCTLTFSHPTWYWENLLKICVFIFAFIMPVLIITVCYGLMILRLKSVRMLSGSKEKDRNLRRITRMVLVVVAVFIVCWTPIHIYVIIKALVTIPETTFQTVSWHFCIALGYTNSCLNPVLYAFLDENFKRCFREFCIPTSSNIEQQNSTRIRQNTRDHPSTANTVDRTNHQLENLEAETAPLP

Row | SMILES | IC50 [1] | IC50 [3, 6] | IC50 [5, 8] | also measured
1 | COC(=O)CN1C(=O)C2(CCN(CC3CCCCCC3)CC2)c2ccccc21 [Compound 1] | 510 nM |  |  | Inhibitor [2]: no
2 | O=C1N(CC2CCCCC2)c2ccccc2C12CCN(C1Cc3cccc4cccc1c34)CC2 (stereo not shown) [Compound 4] |  | > 10000 nM |  | IC50 [4, 7]: > 10000 nM
3 | COc1ccc2c(c1)N(CC1CC1)C(=O)C21CCN(CC2CCCCCCC2)CC1 [Compound 5, 1-(cyclopropyl-methyl)-5-(cyclooctyl-methyl)-10-methoxy-spiro[indoline-3,4′-piperidin]-2-one] |  |  |  | IC50 [3]: > 10000 nM
4 | CC(C)c1ccc2c(c1)C1(CCN(CC3CCCCCCC3)CC1)C(=O)N2C [Compound 7, 1-methyl-5-(cyclooctyl-methyl)-9-isopropyl-spiro[indoline-3,4′-piperidin]-2-one] | 7400 nM |  |  | IC50 ([3]; read-out: Mu (μ) IC50): 980 nM; IC50 ([5]; read-out: Kappa (κ) IC50): 97 nM
5 | CN1C(=O)C2(CCN(CC3CCCCCCC3)CC2)c2cc(C(F)(F)F)ccc21 [Compound 8, 1-methyl-5-(cyclooctyl-methyl)-9-trifluoromethyl-spiro[indoline-3,4′-piperidin]-2-one] | 600 nM | 5310 nM |  | IC50 [4]: > 10000 nM
6 | CN1C(=O)C2(CCN(CC3CCCCCCC3)CC2)c2cc(F)ccc21 [Compound 9, 1-methyl-5-(cyclooctyl-methyl)-9-fluoro-spiro[indoline-3,4′-piperidin]-2-one] | 23 nM | 1010 nM | 250 nM | IC50 [4]: > 10000 nM; Inhibitor [2]: undetermined; % Inhibition (100 nM Nociceptin) [2]: 41 ± 26%
7 | COC(=O)CN1C(=O)C2(CCN(Cc3ccc(C(F)(F)F)cc3)CC2)c2ccccc21 [Compound 11] | 880 nM |  |  | 
8 | COC(=O)CN1C(=O)C2(CCN(Cc3cccc(C(F)(F)F)c3)CC2)c2ccccc21 [Compound 12] | 140 nM |  |  | 
9 | CN1C(=O)C2(CCN(C(=O)OC(C)(C)C)CC2)c2cc(C(F)(F)F)ccc21 [Compound 14, 1-methyl-5-tert-butoxycarbonyl-9-trifluoromethyl-spiro[indoline-3,4′-piperidin]-2-one] | > 10000 nM |  |  | 
10 | COC(=O)CN1C(=O)C2(CCN(C3CCC4CCCCC4C3)CC2)c2ccccc21 (stereo not shown) [Compound 15] | 900 nM |  |  | 
11 | CC(=O)N[C@@H](CSCC(O)CN1C(=O)C2(CCN(CC3CCCCCCC3)CC2)c2ccccc21)C(=O)O (stereo partly shown) [Compound 16] |  | 360 nM | 360 nM | IC50 [4, 7]: > 10000 nM
12 | CCCN1C(=O)C2(CCN(CC3CCCCCCC3)CC2)c2cc(C(C)C)ccc21 [Compound 17] |  | > 10000 nM | 4000 nM | IC50 [4, 7]: 5700 nM
13 | O=C1Nc2ccccc2C12CCN(CC1CCCCCCC1)CC2 [Compound 18] | 380 nM | 1110 nM | 430 nM | Inhibitor [2]: yes; % Inhibition (100 nM Nociceptin) [2]: 45 ± 9%
14 | CN1C(=O)C2(CCN(CC3CCCCCCC3)CC2)c2ccc(O)cc21 [Compound 19] | 2680 nM | > 10000 nM | 120 nM | IC50 [4, 7]: 300 nM
15 | O=C1N(CCO)c2ccccc2C12CCN(CC1CCCCCCC1)CC2 [Compound 20] | 290 nM | 1690 nM |  | 
16 | COC(=O)CN1C(=O)C2(CCN(CC3CC3)CC2)c2ccccc21 [Compound 23] | 3600 nM |  |  | 
17 | COC(=O)CN1C(=O)C2(CCN(CC3CCCCC3)CC2)c2ccccc21 [Compound 24] | 800 nM |  |  | Inhibitor [2]: yes; % Inhibition (100 nM Nociceptin) [2]: 32 ± 2%
18 | CCCCCCN1CCC2(CC1)C(=O)N(CC(=O)OC)c1ccccc12 [Compound 26] | 820 nM |  |  | 
19 | COC(=O)CN1C(=O)C2(CCN(CC3CCCCCCCCCCC3)CC2)c2ccccc21 [Compound 27] | 1120 nM |  |  | 

Row | SMILES | IC50 [1] | IC50 [3, 6] | IC50 [5, 8] | also measured
20 | COC(=O)CN1C(=O)C2(CCN(CC3CCC(C(C)(C)C)CC3)CC2)c2ccccc21 (stereo not shown) [Compound 29] | 100 nM |  |  | 
21 | COC(=O)CN1C(=O)C2(CCN(C3Cc4cccc5cccc3c45)CC2)c2ccccc21 (stereo not shown) [Compound 30] |  | > 10000 nM | 4410 nM | IC50 [4, 7]: > 10000 nM
22 | COC(=O)CN1C(=O)C2(CCN(Cc3ccc4ccccc4c3)CC2)c2ccccc21 [Compound 32] | 250 nM |  |  | 
23 | COc1ccc2c(c1)N(C)C(=O)C21CCN(CC2CCCCCCC2)CC1 [Compound 35, 1-methyl-5-(cyclooctyl-methyl)-10-methoxy-spiro[indoline-3,4′-piperidin]-2-one] | 2400 nM | 1610 nM | 1220 nM | 
24 | COC(=O)CN1C(=O)C2(CCN(Cc3ccc(Cl)cc3)CC2)c2ccccc21 [Compound 39] | 710 nM |  |  | 
25 | O=C(O)CN1C(=O)C2(CCN(CC3CCCCCCC3)CC2)c2ccccc21 [Compound 41] |  |  |  | IC50 [3]: > 10000 nM; IC50 [4]: > 10000 nM; IC50 [5]: > 10000 nM
26 | COC(=O)CN1C(=O)C2(CCN(CC3CCCCCCC3)CC2)c2ccccc21 [Compound 42] | 100 nM | 3550 nM | 640 nM | 
27 | COC(=O)CN1C(=O)C2(CCN(Cc3cccc4ccccc34)CC2)c2ccccc21 [Compound 43] | 470 nM |  |  | 
28 | O=C1N(Cc2ccccc2)c2ccccc2C12CCN(CC1CCCCCCC1)CC2 [Compound 44] | 120 nM | 960 nM | 1100 nM | 
29 | CN1C(=O)C2(CCN(CC3CCCCCCC3)CC2)c2ccccc21 [Compound 45] | 32 nM | 1300 nM | 930 nM | Inhibitor [2]: no
30 | CC(=O)OCCN1C(=O)C2(CCN(CC3CCCCCCC3)CC2)c2ccccc21 [Compound 46] | 180 nM | 1410 nM | 2640 nM | Inhibitor [2]: no
31 | CCN1C(=O)C2(CCN(CC3CCCCCCC3)CC2)c2ccc(OC)cc21 [Compound 55, 1-ethyl-5-(cyclooctyl-methyl)-10-methoxy-spiro[indoline-3,4′-piperidin]-2-one] | 2750 nM | 1460 nM |  | 
32 | Cc1ccc2c(c1)C1(CCN(CC3CCCCCCC3)CC1)C(=O)N2C [Compound 57, 1-methyl-5-(cyclooctyl-methyl)-9-methyl-spiro[indoline-3,4′-piperidin]-2-one] | 450 nM | 4280 nM | 540 nM | IC50 [4, 7]: > 10000 nM; Inhibitor [2]: no
33 | Cc1ccc2c(c1)N(C)C(=O)C21CCN(CC2CCCCCCC2)CC1 [Compound 58, 1-methyl-5-(cyclooctyl-methyl)-10-methyl-spiro[indoline-3,4′-piperidin]-2-one] | 150 nM | 6470 nM | 2380 nM | IC50 [4, 7]: 8800 nM; Inhibitor [2]: undetermined; % Inhibition (100 nM Nociceptin) [2]: 48 ± 26%
34 | Cc1cccc2c1C1(CCN(CC3CCCCCCC3)CC1)C(=O)N2C [Compound 59, 1-methyl-5-(cyclooctyl-methyl)-8-methyl-spiro[indoline-3,4′-piperidin]-2-one] | 37 nM | 480 nM | 560 nM | Inhibitor [2]: yes; % Inhibition (100 nM Nociceptin) [2]: 81 ± 6%
35 | O=C1N(CC2CO2)c2ccccc2C12CCN(CC1CCCCCCC1)CC2 (stereo not shown) [Compound 60] | 83 nM | 840 nM | 480 nM | Inhibitor [2]: no; % Inhibition (100 nM Nociceptin) [2]: 17 ± 3%
36 | O=C1N(CC(O)CNCCN2CCOCC2)c2ccccc2C12CCN(CC1CCCCCCC1)CC2 (stereo not shown) [Compound 61] | 120 nM |  |  | IC50 ([3]; read-out: Mu (μ) IC50): 500 nM; IC50 ([5]; read-out: Kappa (κ) IC50): 100 nM
37 | CCN(Cc1ccc(C)cc1)CC(O)CN1C(=O)C2(CCN(CC3CCCCCCC3)CC2)c2ccccc21 (stereo not shown) [Compound 62] | 320 nM | 620 nM | 220 nM | 
38 | CCN1CC2(CCN(CC3CCCCCCC3)CC2)c2ccc(OC)cc21 [Compound 63] |  | > 10000 nM | > 10000 nM | IC50 [4, 7]: > 10000 nM
